Source: patent US20080287299A1, “Use of Imidazole and/or Triazole Derivatives for Combating Plant Pests; as Well as Method for Controlling Diseases/Insects/Mites/Nematodes and Weeds, Particularly Foliar and/or Soil Diseases” (priority 2005, published 2008)

Tested on: Phakopsora pachyrhizi
Assay: Greenhouse soybean rust test, plants at V5 stage, evaluated every 7 days
Type: in vivo
Conditions: for SEVERITY OF RUST (% IFA) 7 DAT / SEVERITY OF RUST (% IFA) 14 DAT / SEVERITY OF RUST (% IFA) 21 DAT / SEVERITY OF RUST (% IFA) 28 DAT: soybean; for effective in controlling soybean rust: from 50 grams of active ingredient per hectare
Description: Recent tests carried out in greenhouses the laboratory of FMC Quimica do Brasil Ltda. in Uberaba, MG, Brazil, show the highly fungicidal effect of said specific imidazole and/or triazole derivatives in combating diseases of plants, particularly against the attack by the fungus Phakopsora pachyrhizi on soybeans, as described hereinafter.
Experimental Outline Experimental Outline: entirely made with five repetitions, two plants per repetition, totaling 10 plants.
a) Preventive Mode: 30 days after plantation of the soybeans in plastic 2-liter pots and with corresponding volumes of soil, the soybean plants were at the V5 stage with six expanded folioles. At this moment, the compounds were sprayed and then, 48 hours afterwards, inoculation of the rust was effected. To effect the inoculation, one prepared a suspension of Phakopsora uredospores at the concentration of 2×10^4 spores/milliliters.
b) Healing mode: 30 days after plantation of the soybeans in 2-liter plastic pots and with a corresponding volume of soil, the soybean plants were at the V5 stage with six expanded folioles. At this moment, one effected the inoculation of the rust and then, 48 hours afterwards, the compounds were sprayed. To effect the inoculation, one prepared a suspension of Phakopsora uredospores at the concentration of 2×10^4 spores/milliliters.
Equipment: a manual sprayer commonly used in agriculture with 2-liter capacity.
Dosages: 50 to 300 grams per hectare of the active compound Itraconazole per liter diluted in water.
Evaluations of the Effectiveness of the Product: The evaluations were made every 7 days after application of the product, in a total of 4 evaluations. As an evaluation parameter one utilized the severity of the disease (percentage of foliar area attacked by rust) according to FIG. 1).
Dosages: 50 to 300 grams per hectare of the active compound Voriconazole per liter diluted in water.

SMILES: C[C@@H](c1ncncc1F)[C@](O)(Cn1cncn1)c1ccc(F)cc1F (relative stereo) [Voriconazole, alpha-(2,4-difluorophenyll)-5-fluor-beta-methyl-alpha-(1H-1,2,4-triazol-1-yllmethyl)-(R—(R*,S*))-4-pirimidinetanole]
- SEVERITY OF RUST (% IFA) 7 DAT (Table 5: 50 g ac/ha): 8 % IFA
- SEVERITY OF RUST (% IFA) 14 DAT (Table 5: 50 g ac/ha): 10 % IFA
- SEVERITY OF RUST (% IFA) 21 DAT (Table 5: 50 g ac/ha): 10 % IFA
- SEVERITY OF RUST (% IFA) 28 DAT (Table 5: 50 g ac/ha): 13 % IFA
- SEVERITY OF RUST (% IFA) 7 DAT (Table 5: 100 g ac/ha): 8 % IFA
- SEVERITY OF RUST (% IFA) 14 DAT (Table 5: 100 g ac/ha): 8 % IFA
- SEVERITY OF RUST (% IFA) 21 DAT (Table 5: 100 g ac/ha): 11 % IFA
- SEVERITY OF RUST (% IFA) 28 DAT (Table 5: 100 g ac/ha): 18 % IFA
- SEVERITY OF RUST (% IFA) 7 DAT (Table 5: 150 g ac/ha): 8 % IFA
- SEVERITY OF RUST (% IFA) 14 DAT (Table 5: 150 g ac/ha): 8 % IFA
- SEVERITY OF RUST (% IFA) 21 DAT (Table 5: 150 g ac/ha): 10 % IFA
- SEVERITY OF RUST (% IFA) 28 DAT (Table 5: 150 g ac/ha): 18 % IFA
- SEVERITY OF RUST (% IFA) 7 DAT (Table 5: 200 g ac/ha): 4 % IFA
- SEVERITY OF RUST (% IFA) 14 DAT (Table 5: 200 g ac/ha): 7 % IFA
- SEVERITY OF RUST (% IFA) 21 DAT (Table 5: 200 g ac/ha): 11 % IFA
- SEVERITY OF RUST (% IFA) 28 DAT (Table 5: 200 g ac/ha): 11 % IFA
- SEVERITY OF RUST (% IFA) 7 DAT (Table 5: 300 g ac/ha): 2 % IFA
- SEVERITY OF RUST (% IFA) 14 DAT (Table 5: 300 g ac/ha): 0 % IFA
- SEVERITY OF RUST (% IFA) 21 DAT (Table 5: 300 g ac/ha): 1 % IFA
- SEVERITY OF RUST (% IFA) 28 DAT (Table 5: 300 g ac/ha): 5 % IFA
- effective in controlling soybean rust: effective in controlling soybean rust

SMILES: CC[C@@H]([C@H](C)O)n1ncn(-c2ccc(N3CCN(c4ccc(OC[C@@H]5CO[C@](Cn6cncn6)(c6ccc(F)cc6F)C5)cc4)CC3)cc2)c1=O [Posaconazole, 1-((1S,2S)-1-ethyl-2-hydroxypropyl)-4-{4-[4-(4-{[(5S,3R)-5-(2,4-difluorophenyl)-5-(1,2,4-triazolylmethyll)oxolan-3-yl]methoxy}phenyl)pipera-zinyl]phenyl}-1,2,4-triazolin-5-one]
- SEVERITY OF RUST (% IFA) 7 DAT (Table 6: 50 g ac/ha): 11 % IFA
- SEVERITY OF RUST (% IFA) 14 DAT (Table 6: 50 g ac/ha): 13 % IFA
- SEVERITY OF RUST (% IFA) 21 DAT (Table 6: 50 g ac/ha): 15 % IFA
- SEVERITY OF RUST (% IFA) 28 DAT (Table 6: 50 g ac/ha): 14 % IFA
- SEVERITY OF RUST (% IFA) 7 DAT (Table 6: 100 g ac/ha): 5 % IFA
- SEVERITY OF RUST (% IFA) 14 DAT (Table 6: 100 g ac/ha): 8 % IFA
- SEVERITY OF RUST (% IFA) 21 DAT (Table 6: 100 g ac/ha): 12 % IFA
- SEVERITY OF RUST (% IFA) 28 DAT (Table 6: 100 g ac/ha): 13 % IFA
- SEVERITY OF RUST (% IFA) 7 DAT (Table 6: 150 g ac/ha): 0 % IFA
- SEVERITY OF RUST (% IFA) 14 DAT (Table 6: 150 g ac/ha): 6 % IFA
- SEVERITY OF RUST (% IFA) 21 DAT (Table 6: 150 g ac/ha): 9 % IFA
- SEVERITY OF RUST (% IFA) 28 DAT (Table 6: 150 g ac/ha): 12 % IFA
- SEVERITY OF RUST (% IFA) 7 DAT (Table 6: 200 g ac/ha): 3 % IFA
- SEVERITY OF RUST (% IFA) 14 DAT (Table 6: 200 g ac/ha): 0 % IFA
- SEVERITY OF RUST (% IFA) 21 DAT (Table 6: 200 g ac/ha): 6 % IFA
- SEVERITY OF RUST (% IFA) 28 DAT (Table 6: 200 g ac/ha): 9 % IFA
- SEVERITY OF RUST (% IFA) 7 DAT (Table 6: 300 g ac/ha): 0 % IFA
- SEVERITY OF RUST (% IFA) 14 DAT (Table 6: 300 g ac/ha): 0 % IFA
- SEVERITY OF RUST (% IFA) 21 DAT (Table 6: 300 g ac/ha): 3 % IFA
- SEVERITY OF RUST (% IFA) 28 DAT (Table 6: 300 g ac/ha): 7 % IFA
- effective in controlling soybean rust: effective in controlling soybean rust

SMILES: C[C@@H](c1nc(-c2ccc(C#N)cc2)cs1)[C@](O)(Cn1cncn1)c1ccc(F)cc1F [Ravuconazole, 4-[2-[(1R,2R)-2-(2,4-difluor-phenyl)-2-hydroxy-1-methyl-3-(1H-1,2,4-triazol-1-yl)propyl]4-thiazolyl]-benzonitriyl]
- SEVERITY OF RUST (% IFA) 7 DAT (Table 4: 50 g ca/ha): 15 % IFA
- SEVERITY OF RUST (% IFA) 14 DAT (Table 4: 50 g ca/ha): 16 % IFA
- SEVERITY OF RUST (% IFA) 21 DAT (Table 4: 50 g ca/ha): 16 % IFA
- SEVERITY OF RUST (% IFA) 28 DAT (Table 4: 50 g ca/ha): 18 % IFA
- SEVERITY OF RUST (% IFA) 7 DAT (Table 4: 100 g ca/ha): 12 % IFA
- SEVERITY OF RUST (% IFA) 14 DAT (Table 4: 100 g ca/ha): 12 % IFA
- SEVERITY OF RUST (% IFA) 21 DAT (Table 4: 100 g ca/ha): 14 % IFA
- SEVERITY OF RUST (% IFA) 28 DAT (Table 4: 100 g ca/ha): 18 % IFA
- SEVERITY OF RUST (% IFA) 7 DAT (Table 4: 150 g ca/ha): 9 % IFA
- SEVERITY OF RUST (% IFA) 14 DAT (Table 4: 150 g ca/ha): 11 % IFA
- SEVERITY OF RUST (% IFA) 21 DAT (Table 4: 150 g ca/ha): 11 % IFA
- SEVERITY OF RUST (% IFA) 28 DAT (Table 4: 150 g ca/ha): 16 % IFA
- SEVERITY OF RUST (% IFA) 7 DAT (Table 4: 200 g ca/ha): 3 % IFA
- SEVERITY OF RUST (% IFA) 14 DAT (Table 4: 200 g ca/ha): 7 % IFA
- SEVERITY OF RUST (% IFA) 21 DAT (Table 4: 200 g ca/ha): 11 % IFA
- SEVERITY OF RUST (% IFA) 28 DAT (Table 4: 200 g ca/ha): 15 % IFA
- SEVERITY OF RUST (% IFA) 7 DAT (Table 4: 300 g ca/ha): 2 % IFA
- SEVERITY OF RUST (% IFA) 14 DAT (Table 4: 300 g ca/ha): 3 % IFA
- SEVERITY OF RUST (% IFA) 21 DAT (Table 4: 300 g ca/ha): 9 % IFA
- SEVERITY OF RUST (% IFA) 28 DAT (Table 4: 300 g ca/ha): 11 % IFA
- effective in controlling soybean rust: effective
